Test results from ChEMBL document CHEMBL5357036, “Latest developments in coumarin-based anticancer agents: mechanism of action and structure-activity relationship studies” (RSC Med Chem, 2024).
pIC50: −log10 of the molar value.

How the values were obtained:
MCF7 = test: cells; settings: Homo sapiens, MCF7, 48 h
Description: Anticancer activity against human MCF7 cells assessed as inhibition of cell growth incubated for 48 hrs by SRB assay

MDA-MB-231 [1] = test: Antiproliferative activity against human MDA-MB-231 cells assessed as cell growth inhibition incubated for 96 hrs by MTT assay; assay type: functional, cell-based; settings: MDA-MB-231, 96 h
HCT-116 [2] = test: Cytotoxicity against human HCT-116 cells assessed as reduction in cell viability incubated for 96 hrs by MTT assay; assay type: functional, cell-based; settings: HCT-116, 96 h
HCT-116 [3] = test: Cytotoxicity against human HCT-116 cells assessed as reduction in cell viability incubated for 48 hrs by SRB assay; assay type: functional, cell-based; settings: HCT-116, 48 h
HT-29 [4] = test: Cytotoxicity against human HT-29 cells assessed as reduction in cell viability incubated for 48 hrs by SRB assay; assay type: functional, cell-based; settings: HT-29, 48 h
HT-29 [5] = test: Cytotoxicity against human HT-29 cells assessed as reduction in cell viability by MTT assay; assay type: functional, cell-based
MDA-MB-231 [6] = test: Cytotoxicity against human MDA-MB-231 cells assessed as cell growth inhibition measured after 48 hrs by SRB assay; assay type: functional, cell-based; settings: MDA-MB-231, 48 h

For `CN(C)c1ccc(C2CC(c3cc4ccccc4oc3=O)=NN2c2nc(-c3ccccc3)c(/N=N/c3ccc(Cl)cc3)s2)cc1` (stereo not drawn), the pIC50 (MCF7) was 5.27.

`CN(C)c1ccc(C2CC(c3c(O)c4ccccc4oc3=O)=NN2c2nc(-c3ccccc3)c(/N=N/c3ccc(Cl)cc3)s2)cc1` (stereo not drawn) showed a pIC50 (MCF7) of 5.27.

`C[C@H]1[C@@H](OCCCc2cn(COc3cc(=O)oc4ccccc34)nn2)O[C@@H]2O[C@@]3(C)CC[C@H]4[C@H](C)CC[C@@H]1[C@@]24OO3` was tested, and the pIC50 (MDA-MB-231 [1]) was 7.41 and the pIC50 (HCT-116 [2]) was 7.41.

`Cc1cc(C)c2oc(=O)cc(OCn3cc(CCCO[C@H]4O[C@@H]5O[C@@]6(C)CC[C@H]7[C@H](C)CC[C@@H]([C@H]4C)[C@@]57OO6)nn3)c2c1` gave a pIC50 (MDA-MB-231 [1]) of 7.41 and a pIC50 (HCT-116 [2]) of 7.41.

Work on `Cc1cc(=O)oc2cc(Nc3nc(-c4ccc(Br)cc4)cs3)ccc12` yielded a pIC50 (HCT-116 [3]) of 6.60 and a pIC50 (HT-29 [4]) of 6.60.

Work on `C[C@H]1[C@@H](OCc2cn(CCCOc3ccc4c(C(F)(F)F)cc(=O)oc4c3)nn2)O[C@@H]2O[C@@]3(C)CC[C@H]4[C@H](C)CC[C@@H]1[C@@]24OO3` yielded a pIC50 (HT-29 [5]) of 5.91.

`C[C@H]1[C@@H](OCCc2cn(Cc3cc(=O)oc4cc(O)ccc34)nn2)O[C@@H]2O[C@@]3(C)CC[C@H]4[C@H](C)CC[C@@H]1[C@@]24OO3` was tested, and the pIC50 (MDA-MB-231 [6]) was under 4.00.

For `Cc1cc(=O)oc2cc(Nc3nc(-c4ccc(Cl)cc4)cs3)ccc12`, the pIC50 (HCT-116 [3]) was 6.60 and the pIC50 (HT-29 [4]) was 6.60.

In the case of `Cc1ccc2c(Cn3cc(CO[C@H]4O[C@@H]5O[C@@]6(C)CC[C@H]7[C@H](C)CC[C@@H]([C@H]4C)[C@@]57OO6)nn3)cc(=O)oc2c1`, the pIC50 (MDA-MB-231 [6]) was under 4.00.

`Cc1cc(C)c2c(Cn3cc(CCO[C@H]4O[C@@H]5O[C@@]6(C)CC[C@H]7[C@H](C)CC[C@@H]([C@H]4C)[C@@]57OO6)nn3)cc(=O)oc2c1` was tested, and the pIC50 (MDA-MB-231 [6]) was under 4.00.

With `CCOC(=O)c1cc2ccc(OCn3cc(CCO[C@H]4O[C@@H]5O[C@@]6(C)CC[C@H]7[C@H](C)CC[C@@H]([C@H]4C)[C@@]57OO6)nn3)cc2oc1=O` the pIC50 (HT-29 [5]) was 5.61.

`Cc1c(Cl)c(=O)oc2cc(OCn3cc(CCCO[C@H]4O[C@@H]5O[C@@]6(C)CC[C@H]7[C@H](C)CC[C@@H]([C@H]4C)[C@@]57OO6)nn3)ccc12` gave a pIC50 (HT-29 [5]) of under 4.00.

For `CCOC(=O)c1cc2ccc(OCCCn3cc(CO[C@H]4O[C@@H]5O[C@@]6(C)CC[C@H]7[C@H](C)CC[C@@H]([C@H]4C)[C@@]57OO6)nn3)cc2oc1=O`, the pIC50 (HT-29 [5]) was 5.91.

`Cc1ccc2c(OCn3cc(CCCO[C@H]4O[C@@H]5O[C@@]6(C)CC[C@H]7[C@H](C)CC[C@@H]([C@H]4C)[C@@]57OO6)nn3)cc(=O)oc2c1C` was tested, and the pIC50 (MDA-MB-231 [1]) was 7.41 and the pIC50 (HCT-116 [2]) was 7.41.

`CC1SC(N2N=C(c3cc4ccccc4oc3=O)CC2c2ccc(N(C)C)cc2)=NC1=O` (stereo not drawn) was tested, and the pIC50 (MCF7) was 5.27.

`Cc1ccc2c(OCn3cc(CCCO[C@H]4O[C@@H]5O[C@@]6(C)CC[C@H]7[C@H](C)CC[C@@H]([C@H]4C)[C@@]57OO6)nn3)cc(=O)oc2c1` showed a pIC50 (MDA-MB-231 [1]) of 7.41 and a pIC50 (HCT-116 [2]) of 7.41.

With `C[C@H]1[C@@H](OCCCc2cn(COc3ccc4c(C(F)(F)F)cc(=O)oc4c3)nn2)O[C@@H]2O[C@@]3(C)CC[C@H]4[C@H](C)CC[C@@H]1[C@@]24OO3` the pIC50 (HT-29 [5]) was under 4.00.

Compound `Cc1ccc2oc(=O)cc(Cn3cc(CCO[C@H]4O[C@@H]5O[C@@]6(C)CC[C@H]7[C@H](C)CC[C@@H]([C@H]4C)[C@@]57OO6)nn3)c2c1` has a pIC50 (MDA-MB-231 [6]) of under 4.00.

`Cc1cc(=O)oc2cc(OCCCn3cc(CO[C@H]4O[C@@H]5O[C@@]6(C)CC[C@H]7[C@H](C)CC[C@@H]([C@H]4C)[C@@]57OO6)nn3)ccc12` was tested, and the pIC50 (HT-29 [5]) was 5.91.

`Cc1c(Cl)c(=O)oc2cc(OCn3cc(CCO[C@H]4O[C@@H]5O[C@@]6(C)CC[C@H]7[C@H](C)CC[C@@H]([C@H]4C)[C@@]57OO6)nn3)ccc12` was tested, and the pIC50 (HT-29 [5]) was 5.61.

With `Cc1ccc2c(OCn3cc(CCO[C@H]4O[C@@H]5O[C@@]6(C)CC[C@H]7[C@H](C)CC[C@@H]([C@H]4C)[C@@]57OO6)nn3)cc(=O)oc2c1C` the pIC50 (HCT-116 [2]) was under 4.00.

`Cc1cc(=O)oc2cc(OCn3cc(CCO[C@H]4O[C@@H]5O[C@@]6(C)CC[C@H]7[C@H](C)CC[C@@H]([C@H]4C)[C@@]57OO6)nn3)ccc12` gave a pIC50 (HT-29 [5]) of 5.61.

With `Cc1cccc2c(OCn3cc(CCO[C@H]4O[C@@H]5O[C@@]6(C)CC[C@H]7[C@H](C)CC[C@@H]([C@H]4C)[C@@]57OO6)nn3)cc(=O)oc12` the pIC50 (HCT-116 [2]) was under 4.00.

With `Cc1c(Cl)c(=O)oc2cc(OCCn3cc(CO[C@H]4O[C@@H]5O[C@@]6(C)CC[C@H]7[C@H](C)CC[C@@H]([C@H]4C)[C@@]57OO6)nn3)ccc12` the pIC50 (HT-29 [5]) was 7.30.

Work on `CCCc1cc(=O)oc2cc(Nc3nc(-c4ccc(Cl)cc4)cs3)ccc12` yielded a pIC50 (HCT-116 [3]) of 6.60 and a pIC50 (HT-29 [4]) of 6.60.

In the case of `Cc1cc(C)c2oc(=O)cc(OCn3cc(CCO[C@H]4O[C@@H]5O[C@@]6(C)CC[C@H]7[C@H](C)CC[C@@H]([C@H]4C)[C@@]57OO6)nn3)c2c1`, the pIC50 (HCT-116 [2]) was under 4.00.
